In this experiment the test system is ependymal cells of the choroid plexus. Put plainly: In vivo mitochondrial mass of choroid plexus (SOD2 immunohistochemistry). Also noted: species or system mice. Conditions: NaBt intraperitoneally in E12.5 pregnant dams, brains at E17.5, vs sham. The text has this: FIG. 8 is a schematic and image from microscopy showing that NaBt increases in vivo the mitochondrial mass of ependymal cells of the choroid plexus.
NaBt increases in vivo the mitochondrial mass of ependymal cells of the choroid plexus. NaBt's effect on mitochondrial mass of ependymal cells from the choroid plexus was investigated. It is a highly vascularized tissue lining the brain ventricles, which is responsible for producing and secreting the cerebral spinal fluid (CSF) and for supplying growth factors and key ions to the developing and mature brain ([…]). The secretory functions of the ependymal cells are highly dependent of mitochondria to ensure active transports of small ions, water and growth factors from the blood side to the CSF side. Impairment of mitochondrial functions in the choroid plexus has been documented in neurodegenerative diseases, such as Alzheimer's disease. To test the effect of NaBt in the choroid plexus of the murine developing brain, NaBt was injected intraperitoneally in E12.5 pregnant dams before dissected the brains at E17.5. Immunohistochemistry was performed on E17.5 sectioned brains to analyze the mitochondrial mass using an antibody against the mitochondrial marker SOD2.

For `CCCC(=O)[O-].[Na+]` [NaBt, sodium butyrate], the “mitochondrial mass of ependymal cells of the choroid plexus” value is “substantial increase”.

These data come from patent publication US10272056B2, “Treatment for mitochondrial diseases” (The George Washington University a Congressionally …, priority 2015, dated 2019).
